Measured values as given in patent US12668803B2, “Glypican-3-specific modified aptamer and use thereof” (APTAMER SCIENCES INC., priority 2019, dated 2026).

How the values were obtained:
Type in all cases: cell-based
[1] = tested on: hepatoma cells (Hep3B, HepG2); test: Cell cycle analysis (propidium iodide, FACS); conditions: 4 hr treatment, FIGS. 25 and 26
Experimental: (§1) To analyze the effects of combi 4 and combi 5 bound with three or five gemcitabines on the cell cycle of hepatoma cells, cell cycle analysis was performed. In detail, Hep3B, HepG2, and A431 cells were seeded in a 6-well plate at a density of 1×10^6/ml, and cultured using a DMEM medium containing 10% FBS and 1% antibiotics (penicillin/streptomycin) under conditions of 5% CO2 and 37° C., respectively. Next day, 100 μM of the modified aptamer stock was mixed with 5×SB18 buffer to prepare the aptamer at a concentration of 80 μM, and heated at 95° C. for 5 min, and then cooled at room temperature for 15 min or more. The medium was removed from the cultured cells, and replaced by a serum-free medium, and cultured under conditions of 37° C. and 5% CO2 for 1 hr. The serum-free medium was removed, and then the cells were washed with 2 ml of 1×PBS. 2 ml of KRPH buffer was added, and cultured under conditions of 37° C. and 5% CO2 for 1 hr. The aptamer was added, and cultured under conditions of 37° C. and 5% CO2 for 4 hr. The KRPH buffer was removed, and 2 ml of 1×PBS was added thereto to perform washing, and then PBS was removed. 2 ml of 1×PBS was added, and cells were scraped using a scraper, and collected in FACs tubes, followed by centrifugation at 4° C. and 2000 rpm for 4 minutes. 1/500-fold diluted RNAase A and propidium iodide diluted with PBS at a concentration of 50 μg/ml were added to the FACs tubes at a volume of 500 μL, followed by pipetting. Incubation was performed at room temperature for 30 min while blocking the light, and then cell cycle was measured.

[2] = tested on: squamous cell carcinoma cells (A431); test: Cell cycle analysis (propidium iodide, FACS); conditions: 4 hr treatment, FIG. 27
Experimental: as §1

HepG2 = test: Cellular internalization of gemcitabine-bound chemically optimized aptamers; conditions: analysis in HepG2 and A431 cells, FIGS. 20 to 22
Experimental: [The source words this procedure for another cell line and reports this cell line under the same test.] 5 aptamer libraries prepared by truncating the 12-10 aptamer at various lengths [12-12 (35-mer), 12-11 (29-mer), 12-13 (24-mer), 12-14 (23-mer), and 12-15 (18-mer)] were subjected to cellular internalization analysis. In detail, a 6-well plate was prepared, and a round cover glass was placed in the 6-well plate. Huh-7 cells were cultured in the 6-well plate according to the method of Example 1-3. 5 μM of the aptamer stock was mixed with 5×SB18 buffer to prepare the aptamer at a concentration of 4 μM, and heated at 95° C. for 5 min, and then cooled at room temperature for 15 min or more. The next day, the medium was removed from the cultured cells, and a serum-free medium was added thereto, and cultured under conditions of 37° C. and 5% CO2 for 1 hr. The serum-free medium was removed, and then the cells were washed with 2 mL of 1×PBS. KRPH buffer was added, and cultured under conditions of 37° C. and 5% CO2 for 1 hr. 4 μM aptamer was diluted to 25 nM, and then cultured under conditions of 37° C. and 5% CO2 for 1 hr or 4 hr. Washing was repeated three times with 2 mL of 1×PBS. Washing was performed in a shaker at room temperature for 10 min while blocking the light. Thereafter, the cells were fixed by treatment with 4% paraformaldehyde at 4° C. for 10 min. Washing was repeated three times with 2 mL of 1×PBS. […]

Huh 7 cells = test: Cell binding analysis of Cy5-labeled aptamers (FACS); conditions: three vs five gemcitabines bound, method of Example 2-1, FIG. 19
Experimental: (§2) The 12-10 aptamer and 5 aptamer libraries prepared by truncating the 12-10 aptamer at various lengths [12-10 (40-mer), 12-12 (35-mer), 12-11 (29-mer), 12-13 (24-mer), 12-14 (23-mer), 12-15 (18-mer)] were subjected to cell binding analysis. Each aptamer sequence was labeled with Cy5 at the 5′ end thereof according to the method of Example 1-1. Huh 7 cells (ATCC, Rockville, MD, USA) were seeded at a density of 2×10^6/mL in a 100 mm^2 culture plate, and cultured using a DMEM medium (Gibco, Grand Island, NY, USA) containing 10% FBS (Gibco, Grand Island, NY, USA) and 1% antibiotics (penicillin/streptomycin) under conditions of 5% CO2 and 37° C. 5 μM of the aptamer stock was mixed with 5×SB18 buffer to prepare the aptamer at a concentration of 4 μM, and heated at 95° C. for 5 min, and then cooled at room temperature for 15 min or more. 4 μM of the aptamer was diluted with KRPH buffer (20 mM HEPES, 5 mM KH2PO4, 1 mM MgSO4, 1 mM CaCl2, 136 mM NaCl, 4.7 mM KCl, pH 7.4) at a concentration of 25 nM. The culture medium was removed from the cultured cells, and 4 mL of phosphate-buffered saline (PBS) was added thereto, followed by washing, and then 4 mL of PBS was removed. 4 mL of cold PBS or warm PBS was added, and cells were scraped using a scraper, and collected in tubes, followed by pipetting. The cells were divided and added to fluorescence-activated cell sorting (FAC) tubes according to the number of samples, followed by centrifugation at 4° C. and 2000 rpm for 4 min. After removing the supernatant, each 500 μL of 25 nM aptamer and control (31-08 (40-mer) aptamer) were added to 15 mL of KRPH buffer, followed by pipetting. The tube was covered with foil to block the light, followed by incubation at 4° C. for 30 min. After incubation, centrifugation was performed at 4° C. and 2000 rpm for 4 min, and the supernatant was removed. 2 mL of cold 1×PBS was added, washed, centrifuged at 4° C. and 2000 rpm for 4 min, and the supernatant was removed. This process was repeated three times. […] Cy5 was measured at […]. […]

[3] = tested on: GPC3-expressing hepatoma cells; test: Cell-killing effect (CCK-8) of gemcitabine-bound combi aptamers; conditions: FIG. 23 and FIG. 24
Experimental: In detail, Huh-7 cells (ATCC, Rockville, MD, USA) were seeded in a 96-well plate at a density of 1×10^4/mL, and cultured using a DMEM (Gibco, Grand Island, NY, USA) medium containing 10% FBS (Gibco, Grand Island, NY, USA) and 1% antibiotics (penicillin/streptomycin) under conditions of 5% CO2 and 37° C. Next day, the aptamer stock (100 μM) was mixed with 5×SB18 buffer to prepare the stock at a concentration of 80 μM, and heated at 95° C. for 5 min, and then cooled at room temperature for 15 min or more. The medium was removed from the cultured cells, and 100 μL of a serum-free medium was added thereto, and cultured under conditions of 37° C. and 5% CO2 for 1 hr. The serum-free medium was removed, and then the cells were washed with 100 μL of 1×PBS. 100 μL of KRPH buffer was added, and cultured under conditions of 37° C. and 5% CO2 for 1 hr. The aptamer was diluted with KRPH buffer to 2-fold of the desired concentration, and added to a 96-well plate at 1× concentration, and cultured under conditions of 37° C. and 5% CO2 for 4 hr. After treatment with the aptamer, the KRPH buffer was removed, and then 100 μL of culture medium was added and cultured under conditions of 37° C. and 5% CO2 for […]. 6 days later, 10 μL of a kit solution of CCK-8 (Cell Counting Kit-8) was added to each well, and then cultured under conditions of 37° C. and 5% CO2 for 3 hr. Cell death levels were examined at […] using a microplate reader.

Hep3B = test: Cellular internalization of chemically optimized aptamers (FIG. 17A); conditions: combi 1 to combi 5, FIG. 17A
HepG2 cell = test: Cell binding analysis of chemically optimized aptamers; conditions: combi 1 to combi 5, FIG. 16
Experimental: [The source words this procedure for another cell line and reports this cell line under the same test.] as §2, with “4 mL of cold PBS or warm PBS was added, and cells were scraped using a scraper, and collected in tubes, followed by pipetting.” left out, “min.” for “min. After removing the supernatant, each 500 μL of 25 nM aptamer and control (31-08 (40-mer) aptamer) were added to 15 mL of KRPH buffer, followed by pipetting. The tube was covered with foil to block the light, followed by incubation at 4° C. for 30 min. After incubation, centrifugation was performed at 4° C. and 2000 rpm for 4 min, and the supernatant was removed. 2 mL of cold 1×PBS was added, washed, centrifuged at 4° C. and 2000 rpm for 4 min, and the supernatant was removed. This process was repeated three times.”

Substance | cell cycle arrest [1] | cell cycle arrest [2] | cellular internalization (HepG2) | cell binding ability (Huh 7 cells) | concentration from which a cell-killing effect is shown [3] | Hep3B cellular internalization (Hep3B) | HepG2 cell binding (HepG2 cell)
Combi 4 G(3) (DNA GNGAANGCGNNGAANNANGYSSSNNCAGNCANCAC; gemcitabines, 2'-OMe, 2'-F, BzdU, 3' idT; Combi 4 G(3); (1)..(1) G is 2-O-Methoxy-DNA.; (2)..(2) n is BzdU.; (3)..(3) G is 2-O-Methoxy-DNA.; (4)..(4) A is 2-Fluorine-DNA.; (5)..(5) A is 2-Fluorine-DNA.; (6)..(6) n is BzdU.; (10)..(10) n is BzdU.; (11)..(11) n is BzdU.; (12)..(12) G is 2-Fluorine-DNA.; (13)..(13) A is 2-Fluorine-DNA.; (14)..(14) A is 2-Fluorine-DNA.; (15)..(15) n is BzdU.; (16)..(16) n is BzdU.; (17)..(17) A is 2-Fluorine-) | arrested hepatoma cells at the G1/S phase | no cell cycle arrest | excellent cellular internalization | excellent cell binding ability | 100 nM | – | –
Combi 5: SEQ ID NO: 14, chemically optimized 12-12 aptamer (G_{Me}nG_{Me}A_{F}A_{F}nGCGnnG_{F}A_{F}A_{Me}nnA_{Me}nWYC_{F}C_{F}C_{F}nnCAG_{Me}nCAnC_{F}A_{Me}C_{F}; 2'-F and 2'-OMe units, modified bases n, W, Y undefined, 3' idT, as printed in the source, key not given here) | – | – | – | – | – | highest | most similar to that of 12-12
